System: human cord blood-derived CD34+ cells
Assay: Expansion of CD34+ cells from human cord blood-derived CD34+ cells (7-day liquid culture with SCF, flow cytometry count)
Assay type: cell-based
Details: 168 h, number of CD34+ cells relative to absence of compound, 100 ng/mL SCF, 7 days, 37° C., read-out: Expansion efficiency; for fold induction at 1 µg/mL: 1 μg/mL compound; for fold induction at 0.3 µg/mL: 0.3 μg/mL compound
Protocol: Commercially available human cord blood-derived CD34^+ cells (Cambrex Bio Science Walkersville) were plated on a 12-well plate (Corning) (from 5000 to 10000 cells/1 mL/well). As the culture medium, StemSpan SFEM (Stemcell Technologies) containing 100 ng/mL SCF (R&D Systems) was used, and Compounds Nos. 1 to 11 dissolved in dimethyl sulfoxide were added in an amount of 0.1% (v/v) to a final concentration of 0.3 or 1 μg/mL.
After the cells were incubated in liquid culture at 37° C. for 7 days in a CO2 incubator (in an atmosphere containing 5 vol % CO2), the total number of cells was counted by trypan blue assay (Invitrogen) or Flow-Count™ fluorosphere assay (Beckman Coulter). The number of CD34^+ cells was calculated as follows. After the incubation, the cells in the liquid culture was stained with a CD34 antibody (PE, Becton, Dickinson and Company). The stained cells were analyzed with a flow cytometer (Beckman Coulter) to determined the proportion of CD34^+ cells, which was multiplied by the total number of cells to calculate the number of CD34^+ cells.
The expansion efficiencies in the presence of 0.3 μg/mL or 1 μg/mL of compounds based on the number of CD34^+ cells in the absence of them are shown in Table 1 on a scale of A for expansion efficiencies of 3 or greater, B for expansion efficiencies of at least 2 and less than 3, and C for expansion efficiencies of at least 1.4 and less than 2.

Row | Structure (SMILES) | fold induction at 1 µg/mL | fold induction at 0.3 µg/mL
1 | CC(=O)NC1CCN(C(=O)c2ccc(C(=O)N/N=C(\C)c3csc(-c4ccc(Cl)c(Cl)c4)c3O)s2)C1 (centres unmarked) [compound 1] | ≥ 3 | 
2 | C/C(=N\NC(=O)c1ccc(C(=O)Cn2ccc(=O)cc2)s1)c1csc(-c2ccc(Cl)c(Cl)c2)c1O [compound 7] |  | 1.4 to 2
3 | C/C(=N\NC(=O)c1ccc(C(=O)N(N)Cc2ccncc2)s1)c1csc(-c2ccc(Cl)c(Cl)c2)c1O [compound 6] |  | 1.4 to 2
4 | C/C(=N\NC(=S)Nc1cccc(C(=O)NCCC(N)=O)c1)c1csc(-c2ccc(Cl)c(Cl)c2)c1O [compound 3] | ≥ 3 | 
5 | C/C(=N\NC(=O)c1ccc(C(=O)COc2cc(C)nn2C)s1)c1csc(-c2ccc(Cl)c(Cl)c2)c1O [compound 11] | 2 to 3 | 
6 | C/C(=N\NC(=O)c1ccc(C(=O)CSc2cc[n+]([O-])cc2)s1)c1csc(-c2ccc(Cl)c(Cl)c2)c1O [compound 10] | ≥ 3 | 
7 | C/C(=N\NC(=O)c1ccc(C(=O)N2CC(O)C(O)C2)s1)c1csc(-c2ccc(Cl)c(Cl)c2)c1O (centres unmarked) [compound 4] | ≥ 3 | 
8 | C/C(=N\NC(=O)c1ccc(C(=O)CSc2ccncc2)s1)c1csc(-c2ccc(Cl)c(Cl)c2)c1O [compound 8] |  | 2 to 3
9 | C/C(=N\NC(=O)c1ccc(C(=O)NNc2ccccn2)s1)c1csc(-c2ccc(Cl)c(Cl)c2)c1O [compound 5] |  | 1.4 to 2
10 | C/C(=N\NC(=O)c1ccc(C(=O)NN(C)C)s1)c1csc(-c2ccc(Cl)c(Cl)c2)c1O [compound 2] | ≥ 3 | 
11 | C/C(=N\NC(=O)c1ccc(C(=O)N2CCS(=O)(=O)CC2)s1)c1csc(-c2ccc(Cl)c(Cl)c2)c1O [compound 9] |  | 1.4 to 2

Source: patent US20100310536A1, “METHOD FOR EXPANDING HEMATOPOIETIC STEM CELLS USING HETEROCYCLIC COMPOUND” (Nissan Chemical Industries Limited, priority 2007, published 2010)
